# Laboratory results taken from publication PMC8942544, “Design and synthesis of benzodiazepines as brain penetrating PARP-1 inhibitors” (Journal of Enzyme Inhibition and Medicinal Chemistry, 2022).
# Molecular target: T1, PARP-1 (Homo sapiens, UniProt P09874)
# T1 construct: purchased BPS Bioscience 80580
# Assay: PARP-1 enzyme inhibition assay (BPS Bioscience PARP Colorimetric Assay Kit)
# Type: biochemical
# Conditions: not given
# Method: All target compounds were evaluated for PARP-1 enzyme inhibition activity at the concentration of 50 nM determined by previous pre-experiments.
# The ability of the compounds to inhibit PARP-1 enzyme activity was assessed using BPS Bioscience's PARP Colorimetric Assay Kit (BPS Bioscience, Catalog # 80580). PARP-1 is known to catalyse the NAD-dependent addition of poly(ADP-ribose) to histones. The PARP-1 assay kit comes in a convenient 96-well format, with purified PARP-1 enzyme, histone mixture, activated DNA, and PARP-1 assay buffer. The key to the PARP-1 Colorimetric Activity Assay is the biotinylated substrate. With this kit, only three simple steps are required for PARP-1 reactions. First, histone proteins are coated on a 96-well plate. Next, the PARP-1 biotinylated substrate is incubated with an assay buffer that contains the PARP-1 enzyme. Finally, the plate is treated with streptavidin-HRP followed by the addition of the colorimetric HRP substrate to produce colour that can then be measured using a UV/Vis spectrophotometer microplate reader. IC50 values were calculated using GraphPad Prism5 software.
# T1 sequence (P09874 whole entry): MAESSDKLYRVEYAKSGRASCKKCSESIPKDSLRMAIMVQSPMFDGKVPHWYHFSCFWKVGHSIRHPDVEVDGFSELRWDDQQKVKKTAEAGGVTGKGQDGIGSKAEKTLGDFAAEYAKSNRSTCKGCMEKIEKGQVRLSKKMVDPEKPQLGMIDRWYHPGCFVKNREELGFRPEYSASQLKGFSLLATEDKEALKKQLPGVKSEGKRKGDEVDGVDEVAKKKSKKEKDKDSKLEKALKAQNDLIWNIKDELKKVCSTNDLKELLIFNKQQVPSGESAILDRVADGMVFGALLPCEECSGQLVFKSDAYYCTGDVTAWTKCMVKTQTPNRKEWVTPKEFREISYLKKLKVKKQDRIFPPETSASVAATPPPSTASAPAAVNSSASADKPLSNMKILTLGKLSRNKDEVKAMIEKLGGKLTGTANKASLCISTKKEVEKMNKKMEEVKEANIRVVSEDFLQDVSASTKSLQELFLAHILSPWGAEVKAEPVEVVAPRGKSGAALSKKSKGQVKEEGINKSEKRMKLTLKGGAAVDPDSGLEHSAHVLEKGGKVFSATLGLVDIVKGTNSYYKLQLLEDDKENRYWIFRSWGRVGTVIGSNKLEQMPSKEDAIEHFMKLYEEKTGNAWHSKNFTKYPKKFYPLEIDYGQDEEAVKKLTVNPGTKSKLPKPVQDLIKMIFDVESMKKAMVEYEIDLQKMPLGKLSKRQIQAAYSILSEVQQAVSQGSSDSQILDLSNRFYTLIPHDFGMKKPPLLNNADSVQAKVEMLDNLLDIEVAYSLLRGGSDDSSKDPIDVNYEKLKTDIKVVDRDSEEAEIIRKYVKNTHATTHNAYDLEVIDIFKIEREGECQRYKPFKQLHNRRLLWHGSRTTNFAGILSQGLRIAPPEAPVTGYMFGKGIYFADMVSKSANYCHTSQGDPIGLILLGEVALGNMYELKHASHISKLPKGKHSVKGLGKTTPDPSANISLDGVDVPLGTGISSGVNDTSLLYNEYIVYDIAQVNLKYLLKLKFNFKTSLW
row,IC50 [µM],Structure (SMILES)
1,0.0463,"COc1ccc(-c2ccc(C3CNC(=O)c4ccccc4N3)cc2)cc1 (stereo not shown) [Compound H50, 2-(4′-Methoxy-[1,1′-biphenyl]-4-yl)-1,2,3,4-tetrahydro-5H-benzo[e][1,4]diazepin-5-one]"

# Same assay, conditions: compound concentration 50 nM; three independent tests
row,Structure (SMILES),inhibition at 0.05 µM [%]
1,"COc1ccc(C2CNC(=O)c3ccccc3N2)cc1OC (stereo not shown) [Compound H26, 2-(3,4-Dimethoxyphenyl)-1,2,3,4-tetrahydro-5H-benzo[e][1,4]diazepin-5-one]",37.4 ± 3.9
2,"O=C1NCC(c2ccc(F)cc2F)=Nc2ccccc21 [Compound H14, 2-(2,4-Difluorophenyl)-3,4-dihydro-5H-benzo[e][1,4]diazepin-5-one]",36.1 ± 3.6
3,"O=C1NCC(c2ccc(F)cc2)Nc2ccccc21 (stereo not shown) [Compound H22, 2-(4-Fluorophenyl)-1,2,3,4-tetrahydro-5H-benzo[e][1,4]diazepin-5-one]",33 ± 3
4,"O=C1NCC(c2ccc(F)cc2)=Nc2ccccc21 [Compound H8, 2-(4-Fluorophenyl)-3,4-dihydro-5H-benzo[e][1,4]diazepin-5-one]",32.1 ± 3.6
5,"Cc1ccc(C2=Nc3ccccc3C(=O)NC2)cc1 [Compound H5, 2-(p-Tolyl)-3,4-dihydro-5H-benzo[e][1,4]diazepin-5-one]",37.1 ± 2.7
6,"O=C1NCC(c2ccc(-c3cn[nH]c3)cc2)=Nc2ccccc21 [Compound H32, 2-(4-(1H-pyrazol-4-yl)phenyl)-3,4-dihydro-5H-benzo[e][1,4]diazepin-5-one]",48.6 ± 1.2
7,"O=C1NCC(c2cc(F)cc(F)c2)Nc2ccccc21 (stereo not shown) [Compound H25, 2-(3,5-Difluorophenyl)-1,2,3,4-tetrahydro-5H-benzo[e][1,4]diazepin-5-one]",39.2 ± 4.5
8,"O=C1NCC(c2ccc(Cl)c(Cl)c2)=Nc2ccccc21 [Compound H17, 2-(3,4-Dichlorophenyl)-3,4-dihydro-5H-benzo[e][1,4]diazepin-5-one]",34.4 ± 3.6
9,"O=C1NCC(c2ccc(F)cc2F)Nc2ccccc21 (stereo not shown) [Compound H24, 2-(2,4-Difluorophenyl)-1,2,3,4-tetrahydro-5H-benzo[e][1,4]diazepin-5-one]",34.8 ± 2.1
10,"O=C1NCC(c2ccc(Br)cc2)Nc2ccccc21 (stereo not shown) [Compound H27, 2-(4-Bromophenyl)-1,2,3,4-tetrahydro-5H-benzo[e][1,4]diazepin-5-one]",43.2 ± 2.5
11,"O=C1NCC(c2ccc(Br)cc2)=Nc2ccccc21 [Compound H19, 2-(4-Bromophenyl)-3,4-dihydro-5H-benzo[e][1,4]diazepin-5-one]",38.4 ± 1.9
12,"O=C1NCC(c2cccc(F)c2)=Nc2ccccc21 [Compound H9, 2-(3-Fluorophenyl)-3,4-dihydro-5H-benzo[e][1,4]diazepin-5-one]",36.6 ± 3
13,"O=C1NCC(c2ccc3ccccc3c2)=Nc2ccccc21 [Compound H18, 2-(Naphthalen-2-yl)-3,4-dihydro-5H-benzo[e][1,4]diazepin-5-one]",35.9 ± 2.2
14,"COc1ccc(C2=Nc3ccccc3C(=O)NC2)cc1 [Compound H6, 2-(4-Methoxyphenyl)-3,4-dihydro-5H-benzo[e][1,4]diazepin-5-one]",31.9 ± 1.2
15,"O=C1NCC(c2cc(F)cc(F)c2)=Nc2ccccc21 [Compound H15, 2-(3,5-Difluorophenyl)-3,4-dihydro-5H-benzo[e][1,4]diazepin-5-one]",36.9 ± 1.4
16,O=C1NCCCc2ccccc21 [Compound H2],5.2 ± 3.1
17,"CC1NC(=O)c2ccccc2N=C1c1ccc(Br)cc1 (stereo not shown) [Compound H30, 2-(4-Bromophenyl)-3-methyl-3,4-dihydro-5H-benzo[e][1,4]diazepin-5-one]",39.8 ± 4.2
18,"CC1NC(=O)c2ccccc2NC1c1ccc(Br)cc1 (stereo not shown) [Compound H31, 2-(4-Bromophenyl)-3-methyl-1,2,3,4-tetrahydro-5H-benzo[e][1,4]diazepin-5-one]",28.5 ± 3.4
19,"CN1CC(c2ccc(Br)cc2)N(C)c2ccccc2C1=O (stereo not shown) [Compound H29, 2-(4-Bromophenyl)-1,4-dimethyl-1,2,3,4-tetrahydro-5H-benzo[e][1,4]diazepin-5-one]",22.1 ± 3.2
20,"O=C1NCC(c2ccc(Cl)cc2)=Nc2ccccc21 [Compound H10, 2-(4-Chlorophenyl)-3,4-dihydro-5H-benzo[e][1,4]diazepin-5-one]",33 ± 2.4
21,"COc1ccc(C2CNC(=O)c3ccccc3N2)cc1 (stereo not shown) [Compound H20, 2-(4-Methoxyphenyl)-1,2,3,4-tetrahydro-5H-benzo[e][1,4]diazepin-5-one]",27.9 ± 1.8

# Other lines, results leading:
row,inhibition at 0.05 µM [%],Structure (SMILES)
1,46.5 ± 3.2,"Cn1cc(-c2ccc(C3=Nc4ccccc4C(=O)NC3)cc2)cn1 [Compound H33, 2-(4-(1-Methyl-1H-pyrazol-4-yl)phenyl)-3,4-dihydro-5H-benzo[e][1,4]diazepin-5-one]"
2,41.4 ± 3.5,"O=C1NCC(c2ccc(-c3cccc(C(F)(F)F)c3)cc2)=Nc2ccccc21 [Compound H43, 2-(3′-(Trifluoromethyl)-[1,1′-biphenyl]-4-yl)-3,4-dihydro-5H-benzo[e][1,4]diazepin-5-one]"
3,14.9 ± 8.2,"O=C1NCC(c2ccc(-c3ccc4[nH]c5ccccc5c4c3)cc2)=Nc2ccccc21 [Compound H46, 2-(4-(9H-carbazol-3-yl)phenyl)-3,4-dihydro-5H-benzo[e][1,4]diazepin-5-one]"
4,34.7 ± 4.2,"Nc1ccc(-c2ccc(C3=Nc4ccccc4C(=O)NC3)cc2)cn1 [Compound H38, 2-(4-(6-Aminopyridin-3-yl)phenyl)-3,4-dihydro-5H-benzo[e][1,4]diazepin-5-one]"
5,40.8 ± 4.7,"Nc1cccc(-c2ccc(C3=Nc4ccccc4C(=O)NC3)cc2)c1 [Compound H36, 2-(3'-Amino-[1,1'-biphenyl]-4-yl)-3,4-dihydro-5H-benzo[e][1,4]diazepin-5-one]"
6,48.7 ± 5.7,"Nc1cccc(-c2ccc(C3CNC(=O)c4ccccc4N3)cc2)c1 (stereo not shown) [Compound H47, 2-(3′-Amino-[1,1′-biphenyl]-4-yl)-1,2,3,4-tetrahydro-5H-benzo[e][1,4]diazepin-5-one]"
7,44.3 ± 6.2,"Cn1nccc1-c1ccc(C2=Nc3ccccc3C(=O)NC2)cc1 [Compound H35, 2-(4-(1-Methyl-1H-pyrazol-5-yl)phenyl)-3,4-dihydro-5H-benzo[e][1,4]diazepin-5-one]"
8,28.3 ± 8.8,"COc1cccc(-c2ccc(C3=Nc4ccccc4C(=O)NC3)cc2)c1 [Compound H41, 2-(3′-Methoxy-[1,1′-biphenyl]-4-yl)-3,4-dihydro-5H-benzo[e][1,4]diazepin-5-one]"
9,> 50,"COc1ccc(-c2ccc(C3CNC(=O)c4ccccc4N3)cc2)cc1 (stereo not shown) [Compound H50, 2-(4′-Methoxy-[1,1′-biphenyl]-4-yl)-1,2,3,4-tetrahydro-5H-benzo[e][1,4]diazepin-5-one]"
10,29.9 ± 3.4,"CC(C)N1CCN(c2ccc(C3CNC(=O)c4ccccc4N3)cc2)CC1 (stereo not shown) [Compound H53, 2-(4-(4-Isopropylpiperazin-1-yl)phenyl)-1,2,3,4-tetrahydro-5H-benzo[e][1,4]diazepin-5-one]"
11,33.9 ± 5.3,"Nc1ncc(-c2ccc(C3=Nc4ccccc4C(=O)NC3)cc2)cn1 [Compound H39, 2-(4-(2-Aminopyrimidin-5-yl)phenyl)-3,4-dihydro-5H-benzo[e][1,4]diazepin-5-one]"

# Molecular target: PARP-2 (Homo sapiens, UniProt Q9UGN5)
# Assay: PARP-2 enzyme inhibition (IC50)
# Type: biochemical
# Conditions: not given
# Excerpt: PARP-2 is the closest homolog of PARP-1, which also resides in the nucleus and functions similarly to PARP-1.
# PARP-2, sequence (Q9UGN5 whole entry): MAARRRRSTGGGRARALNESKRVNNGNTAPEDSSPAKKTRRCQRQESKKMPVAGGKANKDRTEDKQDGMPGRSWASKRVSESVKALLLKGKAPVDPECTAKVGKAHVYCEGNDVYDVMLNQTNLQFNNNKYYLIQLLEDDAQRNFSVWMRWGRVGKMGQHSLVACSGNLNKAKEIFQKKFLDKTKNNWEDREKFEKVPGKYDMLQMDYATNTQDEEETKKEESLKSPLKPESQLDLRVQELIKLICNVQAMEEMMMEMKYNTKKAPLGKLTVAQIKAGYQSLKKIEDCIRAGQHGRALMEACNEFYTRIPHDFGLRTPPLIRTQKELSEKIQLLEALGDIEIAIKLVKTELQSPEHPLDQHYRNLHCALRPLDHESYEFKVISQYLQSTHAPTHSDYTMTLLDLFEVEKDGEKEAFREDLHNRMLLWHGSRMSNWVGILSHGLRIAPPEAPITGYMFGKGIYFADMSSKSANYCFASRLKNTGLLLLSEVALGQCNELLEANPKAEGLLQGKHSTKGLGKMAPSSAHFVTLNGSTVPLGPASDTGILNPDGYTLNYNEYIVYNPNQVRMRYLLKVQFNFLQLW
row,IC50 [µM],Structure (SMILES)
1,0.0451,"COc1ccc(-c2ccc(C3CNC(=O)c4ccccc4N3)cc2)cc1 (stereo not shown) [Compound H50, 2-(4′-Methoxy-[1,1′-biphenyl]-4-yl)-1,2,3,4-tetrahydro-5H-benzo[e][1,4]diazepin-5-one]"

# System: MX-1 (BRCA1 mutant tumour cells)
# Assay: MTT antiproliferation assay, MX-1 cells
# Type: cell-based
# Conditions: Homo sapiens, MX1, breast cancer cell line, 48 h
# Method: (§1) Due to their acceptable inhibition rates (more than 50%) at the concentration of 50 nM, compounds H34, H42, H48, H50, and H52 were selected to evaluate the proliferation inhibition activity on several cancer cells, including BRCA1 mutant tumour cells (MX-1) and BRCA1 wild type tumour cells (MCF7 and A549).
# (§2) The MTT assay was performed to detect the sensitivity of cells to anticancer drugs in vitro. The human A549, MCF7, and U87 tumour cells, as well as human BRCA mutant tumour cells (MX-1), were tested in this study. The cell culture was carried out in accordance with routine operations or instructions. Briefly, 5,000 cells were seeded in each well of a 96-well plate. After cell attachment to the bottom of the well, different concentrations of tested compounds were added into designated wells. After 48 h of incubation, 20 µL of MTT solution (5 mg/mL) were added to each well for cell staining. After 4 h, the media were removed and 150 µL of DMSO were added to each well. Finally, the absorbance was determined at 570 nm using a multifunctional microplate reader (TECAN).
row,IC50 [µM],Structure (SMILES)
1,130 ± 10.7,"COc1ccc(-c2ccc(C3CNC(=O)c4ccccc4N3)cc2)cc1 (stereo not shown) [Compound H50, 2-(4′-Methoxy-[1,1′-biphenyl]-4-yl)-1,2,3,4-tetrahydro-5H-benzo[e][1,4]diazepin-5-one]"

# System: MCF7 cells
# Assay: MTT antiproliferation assay, MCF7 cells
# Type: cell-based
# Conditions: Homo sapiens, breast cancer cell line, 48 h
# Method: as §1, §2
row,IC50 [µM],Structure (SMILES)
1,125 ± 13.2,"COc1ccc(-c2ccc(C3CNC(=O)c4ccccc4N3)cc2)cc1 (stereo not shown) [Compound H50, 2-(4′-Methoxy-[1,1′-biphenyl]-4-yl)-1,2,3,4-tetrahydro-5H-benzo[e][1,4]diazepin-5-one]"

# System: A549 cells
# Assay: MTT antiproliferation assay, A549 cells
# Type: cell-based
# Conditions: Homo sapiens, lung cancer cell line, 48 h
# Method: as §1, §2
row,IC50 [µM],Structure (SMILES)
1,> 200,"COc1ccc(-c2ccc(C3CNC(=O)c4ccccc4N3)cc2)cc1 (stereo not shown) [Compound H50, 2-(4′-Methoxy-[1,1′-biphenyl]-4-yl)-1,2,3,4-tetrahydro-5H-benzo[e][1,4]diazepin-5-one]"
